Reference: PubChem BioAssay (NCI)
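Results reflect a 48-hour exposure of cells in 96-well plates to compound at five concentrations. TGI denotes the concentration required for complete inhibition of growth.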

What was measured:
Experiment in all cases: NCI-60 cell line screen, 48 h
[1] = test system: OVCAR-3 ovarian
[2] = test system: 786-0 renal
[3] = test system: SF-295 CNS
[4] = test system: TK-10 renal
[5] = test system: SR leukemia
[6] = test system: RXF 393 renal
[7] = test system: MDA-MB-435
[8] = test system: NCI-H226 lung
[9] = test system: M14 melanoma
[10] = test system: T-47D breast
[11] = test system: PC-3 prostate
[12] = test system: OVCAR-5 ovarian
[13] = test system: BT-549 breast
[14] = test system: SNB-75 CNS
[15] = test system: HOP-92 NSCLC
[16] = test system: EKVX NSCLC
[17] = test system: CCRF-CEM leukemia
[18] = test system: DU-145 prostate
[19] = test system: UACC-62 melanoma
[20] = test system: A498 renal
[21] = test system: U251 CNS
[22] = test system: LOX IMVI melanoma
[23] = test system: SW-620 colon
[24] = test system: SN12C renal
[25] = test system: A549 NSCLC
[26] = test system: NCI-H460 lung
[27] = test system: SF-539 CNS
[28] = test system: MCF7 breast
[29] = test system: SF-268 CNS
[30] = test system: SK-OV-3 ovarian
[31] = test system: UACC-257 melanoma
[32] = test system: COLO 205 colon
[33] = test system: SK-MEL-5 melanoma
[34] = test system: HOP-62 NSCLC
[35] = test system: HS 578T breast
[36] = test system: NCI-H23 lung
[37] = test system: UO-31 renal
[38] = test system: HCC-2998 colon
[39] = test system: KM12 colon
[40] = test system: ACHN renal
[41] = test system: CAKI-1 renal
[42] = test system: SK-MEL-2 melanoma
[43] = test system: MDA-MB-231 breast
[44] = test system: IGROV1 ovarian
[45] = test system: SNB-19 CNS
[46] = test system: NCI/ADR-RES ovarian
[47] = test system: MOLT-4 leukemia
[48] = test system: NCI-H522 lung
[49] = test system: MALME-3M melanoma
[50] = test system: RPMI-8226 leukemia
[51] = test system: MDA-N
[52] = test system: HCT-116 colon
[53] = test system: OVCAR-8 ovarian
[54] = test system: HCT-15 colon
[55] = test system: SK-MEL-28 melanoma
[56] = test system: OVCAR-4 ovarian
[57] = test system: HT29 colon
[58] = test system: K-562 leukemia
[59] = test system: HL-60(TB) leukemia

CC(C)=CCC[C@@H](C)c1c(O)c(O)c(C)c2nccnc12
TGI [1]: > 100 µM
TGI [2]: > 100 µM
TGI [3]: > 71.2 µM
TGI [4]: > 100 µM
TGI [5]: > 100 µM
TGI [6]: > 89.1 µM
TGI [7]: > 100 µM
TGI [8]: 37.1 µM
TGI [9]: > 100 µM
TGI [10]: > 79.8 µM
TGI [11]: > 100 µM
TGI [12]: > 100 µM
TGI [13]: > 100 µM
TGI [14]: > 100 µM
TGI [15]: > 94.2 µM
TGI [16]: > 100 µM
TGI [17]: > 36.5 µM
TGI [18]: > 100 µM
TGI [19]: 50.5 µM
TGI [20]: > 86.1 µM
TGI [21]: > 100 µM
TGI [22]: > 100 µM
TGI [23]: > 100 µM
TGI [24]: > 100 µM
TGI [25]: > 100 µM
TGI [26]: > 100 µM
TGI [27]: 60.2 µM
TGI [28]: > 100 µM
TGI [29]: > 100 µM
TGI [30]: > 100 µM
TGI [31]: > 100 µM
TGI [32]: > 80.7 µM
TGI [33]: 18.9 µM
TGI [34]: > 77.9 µM
TGI [35]: > 80.2 µM
TGI [36]: > 79.1 µM
TGI [37]: 45.9 µM
TGI [38]: > 96.6 µM
TGI [39]: > 72 µM
TGI [40]: 45.2 µM
TGI [41]: > 90.3 µM
TGI [42]: 58 µM
TGI [43]: > 100 µM
TGI [44]: > 81.5 µM
TGI [45]: > 100 µM
TGI [46]: 17.7 µM
TGI [47]: > 53.1 µM
TGI [48]: 23.6 µM
TGI [49]: 66.7 µM
TGI [50]: > 62.7 µM
TGI [51]: > 100 µM
TGI [52]: > 100 µM
TGI [53]: > 48.6 µM
TGI [54]: > 100 µM
TGI [55]: > 100 µM
TGI [56]: > 100 µM
TGI [57]: > 65.6 µM
TGI [58]: > 66.6 µM

COC(=O)C1CC(C=[N+](C)C)=C(SC)N1C(=O)OCc1ccccc1 (stereo unspecified)
TGI [1]: > 100 µM
TGI [2]: > 100 µM
TGI [3]: > 100 µM
TGI [4]: > 100 µM
TGI [5]: > 100 µM
TGI [6]: > 100 µM
TGI [7]: > 100 µM
TGI [9]: > 100 µM
TGI [10]: > 100 µM
TGI [11]: > 100 µM
TGI [12]: > 100 µM
TGI [13]: > 100 µM
TGI [14]: > 100 µM
TGI [15]: > 100 µM
TGI [16]: > 100 µM
TGI [18]: > 100 µM
TGI [19]: > 100 µM
TGI [20]: > 100 µM
TGI [21]: > 100 µM
TGI [23]: > 100 µM
TGI [25]: > 100 µM
TGI [26]: > 100 µM
TGI [28]: > 100 µM
TGI [29]: > 100 µM
TGI [30]: > 100 µM
TGI [31]: > 100 µM
TGI [32]: > 100 µM
TGI [33]: > 100 µM
TGI [34]: > 100 µM
TGI [35]: > 100 µM
TGI [36]: > 100 µM
TGI [37]: > 100 µM
TGI [38]: > 100 µM
TGI [39]: > 100 µM
TGI [40]: > 100 µM
TGI [41]: > 100 µM
TGI [42]: > 100 µM
TGI [43]: > 100 µM
TGI [44]: > 100 µM
TGI [45]: > 100 µM
TGI [46]: > 100 µM
TGI [47]: > 100 µM
TGI [48]: > 100 µM
TGI [49]: > 100 µM
TGI [50]: > 100 µM
TGI [51]: > 100 µM
TGI [52]: > 100 µM
TGI [53]: > 100 µM
TGI [54]: > 100 µM
TGI [55]: > 100 µM
TGI [56]: > 100 µM
TGI [57]: > 100 µM
TGI [58]: > 100 µM

COc1ccc(C(=C2C=CC=C2)c2ccc(OC)cc2)cc1
TGI [1]: > 100 µM
TGI [3]: 54.4 µM
TGI [4]: > 100 µM
TGI [5]: 86.7 µM
TGI [59]: > 100 µM
TGI [6]: 61.7 µM
TGI [7]: > 100 µM
TGI [8]: > 100 µM
TGI [9]: > 100 µM
TGI [10]: 57.7 µM
TGI [11]: > 100 µM
TGI [12]: 88.5 µM
TGI [13]: > 100 µM
TGI [14]: > 100 µM
TGI [15]: > 100 µM
TGI [16]: > 100 µM
TGI [17]: 53 µM
TGI [18]: > 100 µM
TGI [19]: 98.1 µM
TGI [21]: 71.6 µM
TGI [22]: 33.7 µM
TGI [23]: > 100 µM
TGI [24]: 81.3 µM
TGI [25]: > 100 µM
TGI [26]: 86.7 µM
TGI [27]: 29.6 µM
TGI [28]: 37.6 µM
TGI [29]: > 100 µM
TGI [30]: > 100 µM
TGI [31]: > 100 µM
TGI [32]: 43.5 µM
TGI [33]: 95.3 µM
TGI [34]: > 100 µM
TGI [35]: 94.4 µM
TGI [36]: > 100 µM
TGI [37]: > 100 µM
TGI [38]: 42.6 µM
TGI [39]: > 100 µM
TGI [40]: > 100 µM
TGI [41]: 56.3 µM
TGI [42]: 68.5 µM
TGI [43]: 34.8 µM
TGI [44]: > 100 µM
TGI [45]: 74.8 µM
TGI [46]: > 100 µM
TGI [47]: 40.3 µM
TGI [48]: 40.4 µM
TGI [49]: 81.8 µM
TGI [50]: 28 µM
TGI [51]: > 100 µM
TGI [52]: 84.8 µM
TGI [53]: > 100 µM
TGI [54]: 74 µM
TGI [55]: > 100 µM
TGI [56]: > 100 µM
TGI [57]: 66 µM
TGI [58]: > 100 µM

Cc1ccccc1C(=N)c1ccccc1Cc1cccc2ccccc12
TGI [1]: 26.6 µM
TGI [2]: 41 µM
TGI [3]: 62.5 µM
TGI [4]: > 100 µM
TGI [5]: 41.2 µM
TGI [59]: 42.2 µM
TGI [6]: 20.3 µM
TGI [7]: 52.9 µM
TGI [8]: 45 µM
TGI [9]: > 100 µM
TGI [10]: 38.4 µM
TGI [11]: > 100 µM
TGI [12]: > 100 µM
TGI [13]: 92 µM
TGI [15]: 54.8 µM
TGI [16]: > 100 µM
TGI [17]: 42.7 µM
TGI [18]: 42.5 µM
TGI [19]: 38.6 µM
TGI [20]: 95 µM
TGI [21]: 33.9 µM
TGI [22]: 31.9 µM
TGI [23]: 66 µM
TGI [24]: 39.5 µM
TGI [25]: > 100 µM
TGI [26]: 38.6 µM
TGI [27]: 35.4 µM
TGI [28]: 48.6 µM
TGI [29]: 68.2 µM
TGI [30]: 98.9 µM
TGI [31]: > 100 µM
TGI [32]: 76.9 µM
TGI [33]: 34.5 µM
TGI [34]: 43.5 µM
TGI [35]: 26.3 µM
TGI [36]: > 100 µM
TGI [37]: > 100 µM
TGI [38]: 36.7 µM
TGI [39]: 41.9 µM
TGI [40]: > 100 µM
TGI [41]: > 100 µM
TGI [42]: 35.1 µM
TGI [43]: > 100 µM
TGI [44]: > 100 µM
TGI [45]: > 100 µM
TGI [46]: 88.6 µM
TGI [47]: 42.3 µM
TGI [48]: 34.6 µM
TGI [49]: 27.3 µM
TGI [50]: 33.3 µM
TGI [51]: 65.7 µM
TGI [52]: 46.9 µM
TGI [53]: > 100 µM
TGI [54]: 56.1 µM
TGI [55]: 54.1 µM
TGI [56]: > 100 µM
TGI [57]: > 100 µM
TGI [58]: > 100 µM
